According to patent publication US10278969B2, “Pharmaceutical dosage forms” (Novartis AG, priority 2013, dated 2019):

Assay: Chemical stability: hydrolysis degradation of the Compound on processing
Assay type: physicochemical
Details: urea bond cleavage into aniline and aminopyrimidine degradants
Text: In view of the above mentioned difficulties, the inventors tried to compact the voluminous Compound together with excipients without the use of aqueous media. […] There could be various root causes for the degradation problem. The inventor had run numerous experimental trials to identify the cause.

Chemical stability (hydrolysis degradation products): prone to hydrolysis
SMILES: CCN1CCN(c2ccc(Nc3cc(N(C)C(=O)Nc4c(Cl)c(OC)cc(OC)c4Cl)ncn3)cc2)CC1 [the Compound, 3-(2,6-Dichloro-3,5-dimethoxy-phenyl)-1-{6-[4-(4-ethyl-piperazin-1-yl)-phenylamino]-pyrimidin-4-yl}-1-methyl-urea]
